“Also recorded” adds a separate entry of the source.
How the values were obtained:
[1] = system: murine L1210 cisplatin-sensitive leukemia cells; assay: Cytotoxicity: cell-growth inhibition in murine L1210 cisplatin-sensitive leukemia cells, 72-hour drug incubation; type: cell-based; settings: for IC50: 72-hour drug incubation, read-out: ID50 (50% inhibitory drug concentration); for cytotoxicity compared with cisplatin: in vitro
Description: Studies were performed in vitro to assess the cytotoxicity of trans-[Pt(PyAc-N,O)Cl(NH3)] in comparison to several relevant Pt compounds. Cytotoxicity was monitored by cell-growth inhibition experiments in murine L1210 cisplatin-sensitive leukemia cells. The L1210 cell line has been used as a prognosticator of human antitumor activity for some time [Wolpert-DeFilippes, M. K., "Antitumor Activity of Cisplatin Analogs" in: Cisplatin. Current Status and Developments, Prestayko, A. W., Crooke, S. T., and Carter, S. K., eds, Academic Press, (London) 1980, pp. 183-192.]. A separate, non-treated culture was used as a control for these investigations.

[2] = in vivo; cited from earlier work
[3] = N,O-chelate formation (displacement of chloride by carboxylate, complex 1 to complex 2); type: physicochemical
Source text: The details of this synthesis may be found in Example 1 below. The preparation utilizes the anionic N,O-chelating ligand pyridine-2-yl-acetate (PyAc), which introduces a carboxylate donor cis to the nitrogen atom of the planar ligand. The bidentate ligand was used in its O-protected form, i.e., the corresponding methylester (PyAcMe). Formation of the N,O-chelate was achieved via the intermediate dichloro form, trans-[PtCl2 (NH3)(PyAcH)].H2 O (complex 1.H2 O) at neutral pH.
For the purposes of this invention, it should be further noted that the form for administration to patients may be either complex 1 or complex 2, since the former would spontaneously form the N-O chelate under physiological conditions.

[4] = presence of a planar ligand, trans geometry; cited from earlier work

Compound: N.N.[Cl][Pt+2][Cl] [transplatin, trans-[PtCl2 (NH3)2]]
- IC50 [1]: 14000 nM
- cytotoxicity compared with cisplatin [1]: inactive
- therapeutic/biological activity [2]: biologically inactive; also recorded: therapeutically inactive

Compound: trans-[PtCl2 (NH3)(PyAcH)] [Complex 1]
- displacement of chloride by carboxylate ([3]; e.g. in 10^-2 M HCl): remarkably facile
- formation of complex 2 from complex 1 ([3]; pH values greater than 2): readily formed

Compound: N.N.[Cl][Pt][Cl] [cisplatin, cis-[PtCl2 (NH3)2]]
- IC50 [1]: 430 nM

Compound: cis-[Pt(PyAc-N,O)Cl(NH3)]
- IC50 [1]: > 20000 nM
- cytotoxicity compared with cisplatin [1]: inactive
- cytotoxicity compared with cisplatin ([1]; listed as cis-isomer): must be considered inactive

Compound: N.[Cl][Pt][Cl].c1ccc2ncccc2c1 [trans-[PtCl2 (NH3)(quinoline)]]
- in vitro cytotoxicity, effect of planar ligand [4]: dramatically enhances the in vitro cytotoxicity

Compound: trans-[Pt(PyAc-N,O)Cl(NH3)] [Complex 2]
- IC50 [1]: 880 nM
- cytotoxicity compared with cisplatin [1]: comparably cytotoxic to cisplatin itself
- solubility in water: 4 mmol 1-1

Reference: patent US6001872A, “Water soluble transplatinum complexes with anti-cancer activity and method of using same” (priority 1999, dated 1999)
